This is an account of results in ChEMBL document CHEMBL4130363, “Synthesis and pharmacological evaluation of benzamide derivatives as potent and selective sigma-1 protein ligands” (Eur J Med Chem, 2017).

Data set [1] concerns the target T1, Vasoactive intestinal polypeptide receptor 1 (Homo sapiens) (UniProt P32241).
T1 sequence (whole entry): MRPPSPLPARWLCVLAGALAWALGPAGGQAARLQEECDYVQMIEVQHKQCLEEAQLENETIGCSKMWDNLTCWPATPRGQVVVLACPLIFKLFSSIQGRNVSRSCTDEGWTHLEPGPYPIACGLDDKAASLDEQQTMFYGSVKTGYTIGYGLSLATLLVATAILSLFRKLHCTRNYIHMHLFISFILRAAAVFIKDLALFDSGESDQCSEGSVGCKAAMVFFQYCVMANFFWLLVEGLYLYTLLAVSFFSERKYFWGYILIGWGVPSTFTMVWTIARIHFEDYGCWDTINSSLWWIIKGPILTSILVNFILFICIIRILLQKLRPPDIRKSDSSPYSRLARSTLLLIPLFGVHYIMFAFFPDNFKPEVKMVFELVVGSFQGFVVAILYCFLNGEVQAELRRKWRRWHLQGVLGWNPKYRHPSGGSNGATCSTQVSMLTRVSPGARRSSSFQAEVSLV
Nature of the data set: Antagonist activity at recombinant human VPAC1 receptor assessed as inhibition of agonist-induced effect at 10 uM by aequorin reporter based assay. Format: functional.

Data set [2] has as its target Cannabinoid receptor 1 (Homo sapiens) (UniProt P21554). Nature of the data set: Antagonist activity at recombinant human CB1 receptor assessed as inhibition of agonist-induced cAMP induction at 10 uM by HTRF assay. Format: functional. For orientation: In TR-FRET formats the signal depends on donor and acceptor labels being close together.
Data set [3] addresses T2, Neuropeptide Y receptor type 1 (Homo sapiens) (UniProt P25929).
T2 sequence (whole entry): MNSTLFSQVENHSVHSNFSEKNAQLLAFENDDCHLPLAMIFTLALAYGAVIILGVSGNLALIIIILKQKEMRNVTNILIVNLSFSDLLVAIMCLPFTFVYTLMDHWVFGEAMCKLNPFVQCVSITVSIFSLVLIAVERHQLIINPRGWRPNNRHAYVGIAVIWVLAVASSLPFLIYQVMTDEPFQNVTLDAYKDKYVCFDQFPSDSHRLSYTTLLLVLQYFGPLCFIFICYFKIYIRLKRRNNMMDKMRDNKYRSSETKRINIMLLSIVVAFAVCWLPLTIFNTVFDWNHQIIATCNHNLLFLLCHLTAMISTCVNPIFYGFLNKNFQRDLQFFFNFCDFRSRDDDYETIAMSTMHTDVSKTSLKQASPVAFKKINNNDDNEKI
Description: Antagonist activity at recombinant human NPY1R assessed as inhibition of agonist-induced cAMP levels at 10 uM by HTRF assay. It counts as functional. (In general: Cyclic AMP is a second messenger, typically raised through Gs and lowered through Gi signalling.)

Data set [4] concerns the target 5-hydroxytryptamine receptor 7 (Homo sapiens) (UniProt P34969). Nature of the data set: Antagonist activity at recombinant human 5-HT7R assessed as inhibition of agonist-induced cAMP induction at 10 uM by HTRF assay. Format: functional.
Data set [5] concerns the target Vasopressin V1a receptor (Homo sapiens) (UniProt P37288). Description: Antagonist activity at recombinant human V1A receptor assessed as inhibition of agonist-induced effect at 10 uM by aequorin reporter based assay. Format: functional.
For data set [6], the target named is Mu-type opioid receptor (Homo sapiens) (UniProt P35372). Nature of the data set: Antagonist activity at human mu-type opioid receptor assessed as inhibition of agonist-induced effect at 10 uM by GTPgamma[35S] binding-based assay. Format: functional. A general note: GTPγS resists hydrolysis and so accumulates on activated G proteins.
In data set [7] the target is T3, Type-1 angiotensin II receptor (Homo sapiens) (UniProt P30556).
T3 sequence (whole entry): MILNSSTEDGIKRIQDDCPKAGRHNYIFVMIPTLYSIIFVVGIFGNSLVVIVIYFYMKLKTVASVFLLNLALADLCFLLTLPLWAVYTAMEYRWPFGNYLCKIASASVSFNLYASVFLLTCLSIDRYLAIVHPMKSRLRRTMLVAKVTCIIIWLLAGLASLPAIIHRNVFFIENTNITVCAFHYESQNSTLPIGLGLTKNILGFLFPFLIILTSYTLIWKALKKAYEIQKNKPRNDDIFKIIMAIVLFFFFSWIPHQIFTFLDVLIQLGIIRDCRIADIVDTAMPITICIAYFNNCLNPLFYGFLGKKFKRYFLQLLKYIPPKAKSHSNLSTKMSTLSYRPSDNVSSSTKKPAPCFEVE
Nature of the data set: Agonist activity at recombinant human AT1 receptor […] at 10 uM by aequorin reporter based assay relative to agonist. Format: functional.

The target in data set [8] is Glutamate [NMDA] receptor (Homo sapiens) (UniProt Q05586+Q12879+Q13224+O15399+O60391+Q14957+Q8TCU5). Description: Antagonist activity at recombinant human NMDA receptor assessed as inhibition of agonist-induced cAMP levels at 10 uM. Format: protein-complex assay.
Data set [9] has as its target T3, Type-1 angiotensin II receptor (Homo sapiens). Description: Antagonist activity at recombinant human AT1 receptor assessed as inhibition of agonist-induced […] reporter based assay. Format: functional.
In data set [10] the target is Delta-type opioid receptor (Homo sapiens) (UniProt P41143). Description: Antagonist activity at human delta-type opioid receptor assessed as inhibition of agonist-induced effect at 10 uM by GTPgamma[35S] binding-based assay. Format: functional.
The target of data set [11] is 5-hydroxytryptamine receptor 4 (Homo sapiens) (UniProt Q13639). Description: Agonist activity at recombinant human 5-HT4E assessed as induction of cAMP levels at 10 uM by HTRF assay relative to agonist. Format: functional.
Data set [12] has as its target Beta-2 adrenergic receptor (Homo sapiens) (UniProt P07550). Description: Antagonist activity at recombinant human beta-2 adrenergic receptor assessed as inhibition of agonist-induced cAMP induction at 10 uM by HTRF assay. Format: functional.
In data set [13] the target is Histamine H2 receptor (Homo sapiens) (UniProt P25021). Description: Antagonist activity at recombinant human histamine H2 receptor assessed as inhibition of agonist-induced cAMP levels at 10 uM by HTRF assay. Format: functional.
In data set [14] the target is T4, Endothelin-1 receptor (Homo sapiens) (UniProt P25101).
T4 sequence (whole entry): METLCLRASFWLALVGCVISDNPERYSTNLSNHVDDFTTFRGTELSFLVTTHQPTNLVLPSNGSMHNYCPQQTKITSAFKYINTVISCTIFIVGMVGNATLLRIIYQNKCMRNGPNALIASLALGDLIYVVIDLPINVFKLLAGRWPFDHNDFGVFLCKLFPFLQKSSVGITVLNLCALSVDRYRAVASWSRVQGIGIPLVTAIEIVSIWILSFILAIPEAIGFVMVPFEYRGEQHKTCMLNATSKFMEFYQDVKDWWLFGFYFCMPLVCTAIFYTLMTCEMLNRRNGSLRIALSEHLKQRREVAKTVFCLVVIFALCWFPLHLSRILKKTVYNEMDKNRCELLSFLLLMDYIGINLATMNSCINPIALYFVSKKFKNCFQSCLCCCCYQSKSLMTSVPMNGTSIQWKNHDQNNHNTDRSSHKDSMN
Nature of the data set: Antagonist activity at recombinant human ETA receptor assessed as inhibition of agonist induced effect at 10 uM by aequorin reporter based assay. Format: functional.

A further data set has as its system SH-SY5Y. Nature of the data set: Cytotoxicity against human SH-SY5Y cells assessed as reduction in cell viability after 72 hrs by MTT assay. Format: cell-based.
The test system of a further data set is S1R (sigma-1 receptor). Description: Selectivity index, ratio of IC50 for human SH-SY5Y cells to Ki for S1R in human Jurkat cell membranes. It counts as toxicity, cell-based.

The structures appear in SMILES notation.

Chain of Delta-type opioid receptor (Homo sapiens) (P41143 whole entry): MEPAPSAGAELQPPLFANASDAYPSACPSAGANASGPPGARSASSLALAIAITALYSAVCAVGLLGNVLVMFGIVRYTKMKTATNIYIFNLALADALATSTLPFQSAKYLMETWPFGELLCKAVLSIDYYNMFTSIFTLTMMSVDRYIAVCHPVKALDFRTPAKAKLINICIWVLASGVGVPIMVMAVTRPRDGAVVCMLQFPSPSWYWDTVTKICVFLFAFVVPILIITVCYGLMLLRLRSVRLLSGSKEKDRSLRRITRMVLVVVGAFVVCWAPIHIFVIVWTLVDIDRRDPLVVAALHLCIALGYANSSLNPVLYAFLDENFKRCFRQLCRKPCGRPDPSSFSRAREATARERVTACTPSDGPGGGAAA
Chain of 5-hydroxytryptamine receptor 7 (Homo sapiens) (P34969 whole entry): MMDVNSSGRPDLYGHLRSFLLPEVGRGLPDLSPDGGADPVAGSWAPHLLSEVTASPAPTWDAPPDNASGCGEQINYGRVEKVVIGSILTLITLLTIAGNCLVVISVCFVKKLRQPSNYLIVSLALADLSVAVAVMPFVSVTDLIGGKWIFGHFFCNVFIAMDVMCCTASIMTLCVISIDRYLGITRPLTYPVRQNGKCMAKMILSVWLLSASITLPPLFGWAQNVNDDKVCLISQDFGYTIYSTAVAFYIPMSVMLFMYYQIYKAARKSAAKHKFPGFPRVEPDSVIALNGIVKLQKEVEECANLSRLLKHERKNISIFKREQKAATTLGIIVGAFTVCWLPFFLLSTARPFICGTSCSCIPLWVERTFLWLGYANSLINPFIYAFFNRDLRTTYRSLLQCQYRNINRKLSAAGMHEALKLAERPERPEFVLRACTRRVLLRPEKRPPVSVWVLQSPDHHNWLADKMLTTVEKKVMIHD
Chain of 5-hydroxytryptamine receptor 4 (Homo sapiens) (Q13639 whole entry): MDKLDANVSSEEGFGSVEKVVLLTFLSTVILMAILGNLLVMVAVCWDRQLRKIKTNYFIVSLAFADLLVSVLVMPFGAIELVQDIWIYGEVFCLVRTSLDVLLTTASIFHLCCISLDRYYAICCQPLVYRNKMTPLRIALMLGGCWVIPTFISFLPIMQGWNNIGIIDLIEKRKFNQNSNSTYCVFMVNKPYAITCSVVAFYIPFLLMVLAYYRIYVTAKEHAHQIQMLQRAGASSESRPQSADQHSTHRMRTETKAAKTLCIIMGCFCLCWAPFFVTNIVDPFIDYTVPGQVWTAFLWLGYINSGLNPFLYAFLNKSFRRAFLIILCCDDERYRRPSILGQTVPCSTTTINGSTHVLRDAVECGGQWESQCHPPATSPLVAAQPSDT
Chain of Mu-type opioid receptor (Homo sapiens) (P35372 whole entry): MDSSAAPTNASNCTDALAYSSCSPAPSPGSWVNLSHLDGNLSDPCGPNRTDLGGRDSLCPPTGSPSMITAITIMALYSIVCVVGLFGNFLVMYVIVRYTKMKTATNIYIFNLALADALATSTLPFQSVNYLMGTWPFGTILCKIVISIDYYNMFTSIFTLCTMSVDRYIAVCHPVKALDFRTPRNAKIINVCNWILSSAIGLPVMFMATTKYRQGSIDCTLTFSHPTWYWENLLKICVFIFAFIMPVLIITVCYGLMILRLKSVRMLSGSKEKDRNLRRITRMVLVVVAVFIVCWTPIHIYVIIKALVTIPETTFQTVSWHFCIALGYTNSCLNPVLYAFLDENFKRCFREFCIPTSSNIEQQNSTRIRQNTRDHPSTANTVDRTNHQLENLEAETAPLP
Chain of Beta-2 adrenergic receptor (Homo sapiens) (P07550 whole entry, looked up): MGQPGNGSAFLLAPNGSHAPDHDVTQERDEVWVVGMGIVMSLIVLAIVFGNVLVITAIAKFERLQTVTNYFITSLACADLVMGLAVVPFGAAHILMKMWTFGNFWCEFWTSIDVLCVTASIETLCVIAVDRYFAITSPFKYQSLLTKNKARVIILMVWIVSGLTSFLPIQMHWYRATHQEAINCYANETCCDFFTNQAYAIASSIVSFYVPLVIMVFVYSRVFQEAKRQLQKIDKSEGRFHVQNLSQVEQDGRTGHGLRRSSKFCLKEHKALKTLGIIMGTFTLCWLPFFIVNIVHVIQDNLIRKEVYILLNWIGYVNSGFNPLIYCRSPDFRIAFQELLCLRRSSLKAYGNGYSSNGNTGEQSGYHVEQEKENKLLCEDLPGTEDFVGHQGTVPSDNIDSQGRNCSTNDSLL
Chain of Vasopressin V1a receptor (Homo sapiens) (P37288 whole entry, looked up): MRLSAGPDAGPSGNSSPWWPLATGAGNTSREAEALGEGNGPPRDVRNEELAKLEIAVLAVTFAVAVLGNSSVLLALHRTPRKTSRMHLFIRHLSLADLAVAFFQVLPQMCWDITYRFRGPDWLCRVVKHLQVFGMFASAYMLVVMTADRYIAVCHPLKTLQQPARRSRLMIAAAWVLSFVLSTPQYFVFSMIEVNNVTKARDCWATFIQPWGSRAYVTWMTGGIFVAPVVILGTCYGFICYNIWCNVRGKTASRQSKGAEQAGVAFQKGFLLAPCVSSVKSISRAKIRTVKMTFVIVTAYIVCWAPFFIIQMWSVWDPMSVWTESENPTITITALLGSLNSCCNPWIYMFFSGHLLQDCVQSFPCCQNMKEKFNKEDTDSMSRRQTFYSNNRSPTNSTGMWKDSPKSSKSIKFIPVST
Chain of Histamine H2 receptor (Homo sapiens) (P25021 whole entry): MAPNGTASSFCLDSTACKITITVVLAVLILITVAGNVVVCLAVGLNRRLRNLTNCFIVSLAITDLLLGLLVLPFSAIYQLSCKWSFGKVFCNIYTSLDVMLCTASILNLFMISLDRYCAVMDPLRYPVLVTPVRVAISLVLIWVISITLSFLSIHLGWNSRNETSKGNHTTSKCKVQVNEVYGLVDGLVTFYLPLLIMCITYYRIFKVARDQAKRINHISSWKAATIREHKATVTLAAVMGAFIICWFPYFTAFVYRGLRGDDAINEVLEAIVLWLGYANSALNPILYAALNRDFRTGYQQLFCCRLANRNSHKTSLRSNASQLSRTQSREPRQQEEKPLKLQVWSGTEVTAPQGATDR
Chain of Cannabinoid receptor 1 (Homo sapiens) (P21554 whole entry): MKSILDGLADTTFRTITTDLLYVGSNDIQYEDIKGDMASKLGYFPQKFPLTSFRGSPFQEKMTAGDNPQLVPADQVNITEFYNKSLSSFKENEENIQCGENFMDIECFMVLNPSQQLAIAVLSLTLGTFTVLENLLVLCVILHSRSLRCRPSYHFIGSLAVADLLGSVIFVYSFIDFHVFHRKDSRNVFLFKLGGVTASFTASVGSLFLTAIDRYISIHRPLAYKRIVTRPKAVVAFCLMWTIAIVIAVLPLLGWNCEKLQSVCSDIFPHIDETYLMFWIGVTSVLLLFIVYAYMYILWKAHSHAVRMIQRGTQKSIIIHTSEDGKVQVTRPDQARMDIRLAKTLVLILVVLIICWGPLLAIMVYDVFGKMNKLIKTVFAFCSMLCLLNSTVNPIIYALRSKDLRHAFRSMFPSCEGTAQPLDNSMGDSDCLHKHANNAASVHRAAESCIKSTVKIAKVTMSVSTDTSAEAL

On to `CCCc1ccc(C(=O)NCCCN(C)Cc2ccccc2)cc1`, for which the inhibition in data set [1] was 0%; in [2], 4%; in [3], -7%; in data set [4] it was 2%; in data set [5] it was 11%; in data set [6], -4%. Moreover, the inhibition in [8] was 15%; in data set [9], -6%; in data set [10], -5%; in data set [12], 8%; in data set [13], 8%. For the same molecule, the Activity was 0% in data set [7] and -6% in data set [11].

With `CN(CCCNC(=O)c1ccc(Br)cc1)Cc1ccccc1`, the inhibition in [1] is 4%; in [2], -2%; in data set [3], -3%; in [4], 0%; in data set [5], 0%; in data set [6], -9%. For the same molecule, the inhibition in data set [8] is 5%; in data set [10], -5%; in data set [12], -1%; in data set [13], 6%. The Activity in data set [7] is 1%; in [11], -7%.

Turning to `COc1cccc(C(=O)NCCCN(C)Cc2ccccc2)c1`, the inhibition in data set [1] is 1%; in [2], -5%; in [3] it was 3%; in data set [4], -3%; in data set [5], 3%; in data set [6] it was 20%. Further, the inhibition amounted to 0% in data set [8]; 20% in data set [9]; 5% in [14]; 2% in data set [12]; 16% in data set [13]. The Activity in [7] is 0%; in data set [11] it was -12%.

With `CN(CCCNC(=O)c1ccc(C(F)(F)F)cc1)Cc1ccccc1`, the inhibition is 31% in data set [1]; 10% in [2]; -9% in [4]; 6% in data set [5]; -1% in [6]; 14% in data set [8]. Moreover, the inhibition was -2% in data set [9], 2% in [14], 4% in [12] and 6% in data set [13]. Moreover, the Activity in [7] amounted to 0%; in data set [11], 8%.

With `CN(CCCNC(=O)c1ccc([N+](=O)[O-])cc1)Cc1ccccc1`, the inhibition was 0% in [1]; 5% in data set [2]; 6% in data set [3]; 6% in data set [5]; -6% in [6]; 12% in data set [8]. Further, the inhibition in data set [9] came to 17%; in data set [10], 5%; in data set [14], 0%; in [12], 1%; in data set [13], 2%. The values for the Activity in data set [7] and in [11] were 0% and -4%, respectively.

Regarding `CN(CCNC(=O)c1ccc(C#N)cc1)Cc1ccccc1`, the inhibition in data set [1] is 3%; in data set [3], -2%; in [4], -2%; in [5], 9%; in data set [6] it was 9%; in [8], 1%. In addition, the inhibition was determined as 0% in data set [10], 6% in data set [14], 2% in data set [12] and 25% in data set [13]. Moreover, in the data set on SH-SY5Y, the IC50 is above 100 µM. In addition, in the data set with S1R (sigma-1 receptor), the selectivity ratio was above 83300. Moreover, the Activity in data set [7] was 0%; in data set [11], -7%.

For the molecule `COc1ccc(C(=O)NCCCN(C)Cc2ccccc2)cc1`, the inhibition was -8% in data set [2]; 1% in data set [3]; -5% in data set [4]; -9% in [5]; 20% in data set [6]; -10% in data set [9]. The inhibition in [10] is -2%; in data set [14], -1%; in data set [12], 4%; in data set [13], 15%. Also, the Activity is 0% in data set [7] and -13% in [11].

Consider `CN(CCNC(=O)c1ccc(Cl)cc1)Cc1ccccc1`, for which the inhibition in data set [1] was 30%; in data set [2] it was 4%; in [3] it was -1%; in [5] it was 18%; in [8] it was 4%; in data set [9], 21%. Further, the inhibition in data set [10] is 18%; in data set [14], -9%; in [12] it was 1%; in [13] it was 13%. Moreover, the IC50 with SH-SY5Y was above 100 µM. Moreover, the selectivity ratio with S1R (sigma-1 receptor) was above 27800. Besides, the Activity in data set [7] is 0%; in [11], -5%.

Turning to `CN(CCCNC(=O)c1ccc(Cl)cc1)CCc1ccccc1`, the inhibition in data set [1] is 17%; in [2], 1%; in data set [3], -1%; in data set [5] it was 36%; in data set [6], 9%; in data set [8], 16%. The inhibition in data set [9] was found to be 11%; in [10] it was 6%; in data set [12], 2%; in [13], 4%. For the same molecule, the IC50 with SH-SY5Y was above 100 µM. The selectivity ratio with S1R (sigma-1 receptor) was above 23300. The Activity in [7] is 0%; in data set [11] it was -3%.

Regarding `CN(CCNC(=O)c1ccc([N+](=O)[O-])cc1)Cc1ccccc1`, the inhibition in [1] was 22%; in [3], -1%; in data set [4], -2%; in [5], 6%; in [6], 15%; in data set [8], 3%. For the same molecule, the inhibition in data set [10] was determined as 8%; in data set [12], 3%; in [13], 21%. Further, the IC50 in the data set on SH-SY5Y is above 100 µM. Also, the selectivity ratio in the data set on S1R (sigma-1 receptor) is above 27800. In addition, the Activity in data set [7] was 0%; in data set [11] it was -5%.

In general, inhibition refers to the relative decrease from the control value, in per cent. As usually defined, the IC50 is the midpoint of a concentration-inhibition curve.
